Reference: ChEMBL document CHEMBL4346753, “Towards multi-target antidiabetic agents: Discovery of biphenyl-benzimidazole conjugates as AMPK activators” (Bioorg Med Chem Lett, 2019)
Active and inactive are the calls of the source. The calls are words filed in the database; no cut-off is given here.

Legend:
[1] = target: T1, AMP-activated protein kinase (AMPK) alpha-1/beta-1/gamma-1 (Homo sapiens, UniProt P54619+Q13131+Q9Y478); assay: Activation of human AMPK alpha1/beta1/gamma1 expressed in baculovirus/Sf9 cells using SAMS peptide as substrate incubated for 15 mins by in presence of 33P-ATP by liquid scintillation counting method
[2] = target: T2, AMP-activated protein kinase (AMPK) alpha-1/beta-1/gamma-1 (Homo sapiens) (UniProt P54619+Q9Y478+Q13131); assay: Activation of C-terminal His tagged human recombinant full length AMPK alpha1/beta1/gamma1 expressed in baculovirus infected Sf9 cells using SAMS peptide as substrate at 100 uM incubated for 60 mins by ADP-Glo luminescence assay relative to control
Rattus norvegicus = species on record: Rattus norvegicus; assay: Antagonist activity at AT1 receptor in rat portal vein assessed as reduction in […] contraction at 10 uM incubated for 1 min relative to control; parameters: scale not given: the % may be the effect or the level left
[3] = Inhibition of AGE formation assessed as reduction in bovin serum albumin glycation at 1 mM incubated for 24 hrs in presence of glucose by spectrophotometric analysis relative to control; format: functional
[4] = Binding affinity to glyoxal assessed as reduction in glyoxal by GirardT reagent based spectrophotometric method
Platelet = assay: Antiplatelet activity in rabbit platelet rich plasma assessed as inhibition of ADP-induced platelet aggregation at 100 uM relative to control; format: functional, Oryctolagus cuniculus; parameters: scale not given: the % may be the effect or the level left
[5] = Inhibition of AGE formation assessed as reduction in reduction in bovin serum albumin glycation at 1 mM incubated for 24 hrs in presence of glucose, Cu2+ by spectrophotometric analysis relative to control; format: functional
[6] = Ratio of inhibition of formation in AGE for test compound to inhibition of formation in AGE for aminoguanidine at 1 mM incubated for 24 hrs in presence of glucose by spectrophotometric analysis
[7] = target: T2, AMP-activated protein kinase (AMPK) alpha-1/beta-1/gamma-1 (Homo sapiens); assay: Activation of C-terminal His tagged human recombinant full length AMPK alpha1/beta1/gamma1 expressed in baculovirus infected Sf9 cells assessed as enzyme activation using SAMS peptide as substrate at 100 uM incubated for 60 mins by ADP-Glo luminescence assay relative to control
[8] = Inhibition of AGE formation assessed as reduction in reduction in bovin serum albumin glycation incubated for 24 hrs in presence of glucose, Cu2+ by spectrophotometric analysis; format: functional
[9] = Inhibition of AGE formation assessed as reduction in reduction in bovin serum albumin glycation incubated for 24 hrs in presence of glucose by spectrophotometric analysis; format: functional
[10] = target: T2, AMP-activated protein kinase (AMPK) alpha-1/beta-1/gamma-1 (Homo sapiens); assay: (§1) Activation of C-terminal His tagged human recombinant full length AMPK alpha1/beta1/gamma1 expressed in baculovirus infected Sf9 cells using SAMS peptide as substrate incubated for 60 mins by ADP-Glo luminescence assay
[11] = Solubility of the compound in PBS at pH 7.4; format: physicochemical
[12] = Ratio of antiplatelet activity for test compound to antiplatelet activity for acetylsalicylic acid in rabbit platelet rich plasma assessed as inhibition of ADP-induced platelet aggregation at 100 uM; format: functional, Oryctolagus cuniculus
Peritoneal macrophage [13] = assay: Anti-inflammatory activity in mouse peritoneal macrophages assessed as inhibition of LPS-induced NO production incubated for 22 hrs by Griess reagent based colorimetric assay; format: functional, cell-based
Peritoneal macrophage [14] = assay: Cytotoxicity against mouse peritoneal macrophages up to 50 uM incubated for 24 hrs by neutral red assay; format: cell-based
[15] = target: T1, AMP-activated protein kinase (AMPK) alpha-1/beta-1/gamma-1; assay: as §1
Peritoneal macrophage [16] = assay: Cytotoxicity against mouse peritoneal macrophages up to 50 uM incubated for 24 hrs by MTT assay; format: cell-based
[17] = Activation of recombinant rhesus monkey AMPK expressed in Sf9 cells using SAMS peptide as substrate preincubated for 30 mins followed by substrate addition and measured after 60 mins by fluorescence based assay; parameters: species or system Macaca mulatta
[18] = target: 5'-AMP-activated protein kinase; assay: Activation of recombinant mouse AMPK expressed in Sf9 cells using SAMS peptide as substrate preincubated for 30 mins followed by substrate addition and measured after 60 mins by fluorescence based assay
[19] = target: AMP-activated protein kinase, AMPK; assay: Activation of recombinant human AMPK expressed in Sf9 cells using SAMS peptide as substrate preincubated for 30 mins followed by substrate addition and measured after 60 mins by fluorescence based assay

T1 sequence (P54619 whole entry): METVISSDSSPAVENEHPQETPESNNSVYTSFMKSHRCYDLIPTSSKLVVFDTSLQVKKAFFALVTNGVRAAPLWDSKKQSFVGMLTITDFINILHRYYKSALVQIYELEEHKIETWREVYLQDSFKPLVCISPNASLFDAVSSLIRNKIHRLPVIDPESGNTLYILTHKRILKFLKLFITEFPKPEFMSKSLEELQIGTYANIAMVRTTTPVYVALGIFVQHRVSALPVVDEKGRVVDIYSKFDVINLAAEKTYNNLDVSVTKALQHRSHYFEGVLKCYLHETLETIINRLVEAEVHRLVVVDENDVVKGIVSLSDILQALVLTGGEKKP
T1 sequence (Q9Y478 whole entry): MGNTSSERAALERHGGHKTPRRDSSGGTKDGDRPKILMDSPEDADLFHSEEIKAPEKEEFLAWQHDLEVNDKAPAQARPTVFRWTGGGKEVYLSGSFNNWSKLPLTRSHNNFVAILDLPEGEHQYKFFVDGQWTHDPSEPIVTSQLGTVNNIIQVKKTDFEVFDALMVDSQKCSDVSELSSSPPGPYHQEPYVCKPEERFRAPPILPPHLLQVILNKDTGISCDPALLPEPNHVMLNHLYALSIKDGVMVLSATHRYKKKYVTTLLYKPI
T1 sequence (Q13131 whole entry): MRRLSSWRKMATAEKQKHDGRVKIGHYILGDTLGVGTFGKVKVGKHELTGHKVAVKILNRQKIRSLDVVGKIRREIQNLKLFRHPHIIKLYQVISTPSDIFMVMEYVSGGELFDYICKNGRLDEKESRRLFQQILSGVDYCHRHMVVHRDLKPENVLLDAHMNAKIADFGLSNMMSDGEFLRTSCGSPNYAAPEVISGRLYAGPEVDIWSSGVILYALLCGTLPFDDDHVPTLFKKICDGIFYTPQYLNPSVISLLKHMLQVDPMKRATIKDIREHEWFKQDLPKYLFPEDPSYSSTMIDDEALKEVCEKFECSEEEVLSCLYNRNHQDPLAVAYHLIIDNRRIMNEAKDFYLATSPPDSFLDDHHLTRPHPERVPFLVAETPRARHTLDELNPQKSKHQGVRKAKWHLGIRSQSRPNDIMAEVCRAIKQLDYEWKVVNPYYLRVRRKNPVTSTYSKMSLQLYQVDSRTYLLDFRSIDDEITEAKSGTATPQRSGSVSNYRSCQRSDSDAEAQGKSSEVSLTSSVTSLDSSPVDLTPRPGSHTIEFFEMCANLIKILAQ
T2 sequence (P54619 whole entry): as the sequence (P54619 whole entry) above
T2 sequence (Q13131 whole entry partner): as the sequence (Q13131 whole entry) above
T2 sequence (Q9Y478 2-270 partner limits assumed): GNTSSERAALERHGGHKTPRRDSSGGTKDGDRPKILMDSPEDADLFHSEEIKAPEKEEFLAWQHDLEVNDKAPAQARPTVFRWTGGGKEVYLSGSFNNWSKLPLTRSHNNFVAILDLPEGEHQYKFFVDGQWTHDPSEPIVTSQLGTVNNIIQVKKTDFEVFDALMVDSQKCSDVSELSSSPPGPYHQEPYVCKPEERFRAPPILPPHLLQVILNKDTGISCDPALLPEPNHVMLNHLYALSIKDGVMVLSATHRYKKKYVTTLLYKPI

SMILES	Activity [2]	Activity (Rattus norvegicus)	inhibition [3]	Activity (Platelet)	Ratio [12]	also measured
N#Cc1c(O)c2c(-c3ccc(-c4ccccc4O)cc3)csc2[nH]c1=O						EC50 [1]: 0.8 µM
O=C(O)c1ccccc1-c1ccc(CN2C3=NCCCN3c3ccccc32)cc1	-16.2%	7.5%	38.5%			
Br.N#Cc1ccc(C(=O)CN2C3=NCCN3c3ccccc32)cc1	25.5%	0%	72.1%	6.6%		Activity [4]: Active; inhibition [5]: 25.4%; Ratio [6]: 1.8; fold change (FC) [7]: inactive; IC50 ([8]; read-out: IC50): > 1000 µM; IC50 [9]: 422 µM; pEC50 [10]: inactive; solubility [11]: > 500 µM
Br.CCOC(=O)c1ccc(CN2C3=NCCN3c3ccccc32)cc1	0.6%	5.6%	17.5%	76.3%	2.1 - 3.6	
N=C(N)NN [PIMAGEDINE]			57.8%			Activity [4]: Active; IC50 [8]: Not Active; IC50 [9]: 765 µM
O=C(O)c1ccccc1-c1ccc(CN2C3=NCCCCN3c3ccccc32)cc1	-36.4%	20%	30.8%			
Br.N#Cc1ccccc1-c1ccc(CN2C3=NCCCN3c3ccccc32)cc1	197%	40.4%	-9.2%			IC50 (Peritoneal macrophage [13]): 4.96 µM; fold change (FC) [7]: 2.81; Activity (Peritoneal macrophage [14]): Non-Toxic; EC50 ([15]; read-out: EC50): 0.34 µM; solubility [11]: > 500 µM; Activity (Peritoneal macrophage [16]): Non-Toxic
O[C@@H]1CO[C@H]2[C@@H]1OC[C@H]2Oc1nc2nc(-c3ccc(-c4ccccc4)cc3)c(Cl)cc2[nH]1						EC50 [17]: 0.001 to 0.06 µM; EC50 [18]: 0.001 to 0.06 µM; EC50 [19]: 0.001 to 0.06 µM
COC(=O)c1ccccc1-c1ccc(CN2C3=NCCCN3c3ccccc32)cc1	21.7%	5.9%	14.9%			
C[C@@H]1C[C@H]2[C@@H]3CCC4=CC(=O)C=C[C@]4(C)[C@@]3(F)[C@@H](O)C[C@]2(C)[C@@]1(O)C(=O)CO [DEXAMETHASONE]						IC50 (Peritoneal macrophage [13]): 0.15 µM
Br.N#Cc1ccccc1-c1ccc(CN2C3=NCCN3c3ccccc32)cc1	163%	21.9%	8.6%	57.1%	2.1 - 3.6	IC50 (Peritoneal macrophage [13]): 5.32 µM; fold change (FC) [7]: 1.56; EC50 ([15]; read-out: EC50): 109 µM; EC50 ([15]; read-out: pEC50 (converted)): 25.1 µM; solubility [11]: > 500 µM
Br.O=C(O)c1ccc(CN2C3=NCCN3c3ccccc32)cc1	3.7%	11.1%	19.2%	57%	2.1 - 3.6	
Br.c1ccc(-c2ccc(CN3C4=NCCCCN4c4ccccc43)cc2)cc1	12.3%	13.5%		98.7%	2.1 - 3.6	
Br.c1ccc(-c2ccc(CN3C4=NCCN4c4ccccc43)cc2)cc1	54.2%	5.2%	22.5%	89.2%	2.1 - 3.6	
Br.N#Cc1ccccc1-c1ccc(CN2C3=NCCCCN3c3ccccc32)cc1	293%	0%				fold change (FC) [7]: 4; Activity (Peritoneal macrophage [14]): Non-Toxic; EC50 ([15]; read-out: EC50): 0.44 µM; solubility [11]: > 500 µM; Activity (Peritoneal macrophage [16]): Non-Toxic
CCCCc1nc(Cl)c(CO)n1Cc1ccc(-c2ccccc2-c2nnn[nH]2)cc1 [LOSARTAN]		99%	51.4%			inhibition [5]: 51.4%; IC50 ([8]; read-out: IC50): 782 µM; IC50 [9]: > 1000 µM
O=C(O)c1ccccc1-c1ccc(CN2C3=NCCN3c3ccccc32)cc1	6.9%	-1.7%	7.7%			
CC(=O)Oc1ccccc1C(=O)O [ASPIRIN]				27.8%		
COC(=O)c1ccccc1-c1ccc(CN2C3=NCCN3c3ccccc32)cc1	3.5%	-5.7%	0.4%			
Br.c1ccc(-c2ccc(CN3C4=NCCCN4c4ccccc43)cc2)cc1	16%	14.6%	9.9%	95.2%	2.1 - 3.6	
Br.COC(=O)c1ccccc1-c1ccc(CN2C3=NCCCCN3c3ccccc32)cc1	-11.3%	33.3%	17.9%	97.4%	2.1 - 3.6	
Cc1ccc(OCCSc2ncccn2)c(Br)c1	157%					EC50 ([15]; read-out: EC50): 0.55 µM
